Experimental data from patent US20110124877A1, “5-BENZYL-4-AZOLYLMETHYL-4-SPIRO[2.4]HEPTANOL DERIVATIVES, METHODS FOR PRODUCING THE SAME, AND AGRO-HORTICULTURAL AGENTS AND INDUSTRIAL MATERIAL PROTECTING AGENTS THEREOF” (KUREHA CORPORATION, priority 2008, published 2011).

What was measured:
[1] = system: wheat eye spot microorganism (Pseudocercosporella herpotrichoides); test: Antimicroorganism effect, mycelial extension on PDA plate; format: cell-based; details: Oculimacula yallundae, PDA plate medium, 50 mg/l, 1 to 3 days, read-out: growth inhibition grade
[2] = system: Aureobasidium microorganism (Aureobasidium sp.); test: as above; format: cell-based; details: PDA plate medium, 50 mg/l, 1 to 3 days, read-out: growth inhibition grade
[3] = system: rice blast microorganism (Pyricularia oryzae); test: microbe, parasite or virus in culture; format: cell-based; details: read-out: growth inhibition grade
[4] = system: penicillium microorganism (Penicillium sp.); test: Antimicroorganism effect, mycelial extension on PDA plate; format: cell-based; details: PDA plate medium, 50 mg/l, 1 to 3 days, read-out: growth inhibition grade
[5] = system: Aspergillus microorganism (Aspergillus sp.); test: as above; format: cell-based; details: PDA plate medium, 50 mg/l, 1 to 3 days, read-out: growth inhibition grade
[6] = system: Cladosporium microorganism (Cladosporium sp.); test: as above; format: cell-based; details: PDA plate medium, 50 mg/l, 1 to 3 days, read-out: growth inhibition grade
[7] = system: Mucor microorganism (Mucor sp.); test: as above; format: cell-based; details: PDA plate medium, 50 mg/l, 1 to 3 days, read-out: growth inhibition grade
[8] = system: wood denaturing microorganism (Coriolus versicolor); test: as above; format: cell-based; details: Trametes versicolor, PDA plate medium, 50 mg/l, 1 to 3 days, read-out: growth inhibition grade
[9] = system: anthracnose microorganism (Glomerella cingulata); test: as above; format: cell-based; details: Colletotrichum gloeosporioides, PDA plate medium, 50 mg/l, 1 to 3 days, read-out: growth inhibition grade
[10] = system: sclerotinia rot microorganism (Sclerotinia sclerotiorum); test: as above; format: cell-based; details: PDA plate medium, 50 mg/l, 1 to 3 days, read-out: growth inhibition grade
[11] = system: gray mold microorganism (Botritis cinerea); test: as above; format: cell-based; details: PDA plate medium, 50 mg/l, 1 to 3 days, read-out: growth inhibition grade
[12] = system: wheat take-all microorganism (Gaeumannomyces graminis); test: as above; format: cell-based; details: PDA plate medium, 50 mg/l, 1 to 3 days, read-out: growth inhibition grade
[13] = system: Curvularia microorganism (Curvularia sp.); test: as above; format: cell-based; details: PDA plate medium, 50 mg/l, 1 to 3 days, read-out: growth inhibition grade
[14] = system: barley scald microorganism (Rhynchosporium secalis); test: as above; format: cell-based; details: PDA plate medium, 50 mg/l, 1 to 3 days, read-out: growth inhibition grade
[15] = system: wheat pink snow mold microorganism (Microdochium nivale); test: as above; format: cell-based; details: PDA plate medium, 50 mg/l, 1 to 3 days, read-out: growth inhibition grade
[16] = system: barley stripe microorganism (Pyrenophora graminea); test: as above; format: cell-based; details: PDA plate medium, 50 mg/l, 1 to 3 days, read-out: growth inhibition grade
[17] = system: wheat septoria bloth microorganism (Septoria tritici); test: as above; format: cell-based; details: Zymoseptoria tritici, PDA plate medium, 50 mg/l, 1 to 3 days, read-out: growth inhibition grade
[18] = system: ricesheath blight microorganism (Rhizoctonia solani); test: as above; format: cell-based; details: PDA plate medium, 50 mg/l, 1 to 3 days, read-out: growth inhibition grade
[19] = system: sugar beet cercospora leaf spot microorganism (Cercospora beticola); test: as above; format: cell-based; details: PDA plate medium, 50 mg/l, 1 to 3 days, read-out: growth inhibition grade
[20] = system: apple alternaria blotch microorganism (Alternaria alternata); test: as above; format: cell-based; details: PDA plate medium, 50 mg/l, 1 to 3 days, read-out: growth inhibition grade
[21] = system: wheat fusarium blight microorganism (Fusarium graminearum); test: microbe, parasite or virus in culture; format: cell-based; details: read-out: growth inhibition grade
[22] = system: Tricoderma microorganism (Trichoderma sp.); test: Antimicroorganism effect, mycelial extension on PDA plate; format: cell-based; details: PDA plate medium, 50 mg/l, 1 to 3 days, read-out: growth inhibition grade
[23] = system: rice bakanae disease microorganism (Giberella fujikuroi); test: as above; format: cell-based; details: PDA plate medium, 50 mg/l, 1 to 3 days, read-out: growth inhibition grade
[24] = system: wheat stagonospora blotch microorganism (Phaeosphaeria nodorum); test: as above; format: cell-based; details: Parastagonospora nodorum, PDA plate medium, 50 mg/l, 1 to 3 days, read-out: growth inhibition grade
[25] = system: rice seedling blight microorganism (Rhizopus) (Rhizopus oryzae); test: as above; format: cell-based; details: Rhizopus arrhizus, PDA plate medium, 50 mg/l, 1 to 3 days, read-out: growth inhibition grade
[26] = system: barley loose smut microorganism (Ustilago nuda); test: as above; format: cell-based; details: PDA plate medium, 50 mg/l, 1 to 3 days, read-out: growth inhibition grade
[27] = system: citrous blue mold microorganism (Penicillium italicum); test: as above; format: cell-based; details: PDA plate medium, 50 mg/l, 1 to 3 days, read-out: growth inhibition grade
[28] = system: wood denaturing microorganism (Tyromyces palustris); test: as above; format: cell-based; details: PDA plate medium, 50 mg/l, 1 to 3 days, read-out: growth inhibition grade
[29] = system: cucumber fusarium wilt microorganism (Fusarium oxysporum); test: as above; format: cell-based; details: PDA plate medium, 50 mg/l, 1 to 3 days, read-out: growth inhibition grade
[30] = system: cucumber gray mold microorganism; test: Cucumber gray mold preventing effect assay; format: in vivo, Botrytis cinerea; details: analogous assay at 25 mg/l
Description: The sprayed leaves were air-dried, and loaded with a paper disc (8 mm in diameter) soaked with a spore suspension of a cucumber gray mold microorganism, and kept at 20 degrees C. and a high humidity. 4 Days after inoculation, the cucumber gray mold severity was investigated, and the protective value was calculated by the following equation. [table]

| Compound | inhibition at 50 µg/mL [1] [%] | inhibition at 50 µg/mL [2] [%] | inhibition at 50 µg/mL [3] [%] | inhibition at 50 µg/mL [4] [%] | inhibition at 50 µg/mL [5] [%] | inhibition at 50 µg/mL [6] [%] | inhibition at 50 µg/mL [7] [%] | inhibition at 50 µg/mL [8] [%] | inhibition at 50 µg/mL [9] [%] | inhibition at 50 µg/mL [10] [%] | inhibition at 50 µg/mL [11] [%] | inhibition at 50 µg/mL [12] [%] | inhibition at 50 µg/mL [13] [%] | inhibition at 50 µg/mL [14] [%] | inhibition at 50 µg/mL [15] [%] | inhibition at 50 µg/mL [16] [%] | inhibition at 50 µg/mL [17] [%] | inhibition at 50 µg/mL [18] [%] | inhibition at 50 µg/mL [19] [%] | melting point [°C] | other results |
| --- | --- | --- | --- | --- | --- | --- | --- | --- | --- | --- | --- | --- | --- | --- | --- | --- | --- | --- | --- | --- | --- |
| CC1(C)CC12CCC(Cc1ccc(Cl)cc1)C2(O)Cn1cncn1 (centres unmarked) [Compound I-101, 5-(4-chlorobenzyl)-1,1-dimethyl-4-(1H-1,2,4-triazol-1-ylmethyl)-4-spiro[2.4]heptanol] | > 90 | 70 to 90 | > 90 | > 90 | > 90 | > 90 | 70 to 90 | > 90 | > 90 | > 90 | > 90 | > 90 | 70 to 90 | > 90 | 70 to 90 | > 90 | > 90 | 70 to 90 | > 90 |  | inhibition at 50 µg/mL [20]: 70 to 90%; inhibition at 50 µg/mL [21]: > 90%; inhibition at 50 µg/mL [22]: > 90%; inhibition at 50 µg/mL [23]: > 90%; inhibition at 50 µg/mL [24]: > 90%; inhibition at 50 µg/mL [25]: 70 to 90%; inhibition at 50 µg/mL [26]: 70 to 90%; inhibition at 50 µg/mL [27]: > 90%; inhibition at 50 µg/mL [28]: > 90%; inhibition at 50 µg/mL [29]: > 90% |
| OC1(Cn2cncn2)C(Cc2ccc(F)cc2)CCC12CC2 (single isomer, unassigned) [Compound I-8, 5-(4-fluorobenzyl)-4-(1H-1,2,4-triazol-1-ylmethyl)-4-spiro[2.4]heptanol] |  |  |  |  |  |  |  |  |  |  |  |  |  |  |  |  |  |  |  | 139 to 140 |  |
| OC1(Cn2cncn2)C(Cc2cccc(Cl)c2)CCC12CC2 (single isomer, unassigned) [Compound I-4, 5-(3-chlorobenzyl)-4-(1H-1,2,4-triazol-1-ylmethyl)-4-spiro[2.4]heptanol] |  |  |  |  |  |  |  |  |  |  |  |  |  |  |  |  |  |  |  | 120 to 121 |  |
| C[C@]12C[C@H]1C[C@H](Cc1ccc(Cl)cc1)[C@@]2(O)Cn1cncn1 (stereo in doubt) [Comparative Compound (A), 3-(4-chlorobenzyl)-1-methyl-2-(1H-1,2,4-triazol-1-ylmethyl)bicyclo[3.1.0]hexan-2-ol, reference compound] |  |  |  |  |  |  |  |  |  |  |  |  |  |  |  |  |  |  |  |  | Controlling value [30]: 54% |
| OC1(Cn2cncn2)C(Cc2ccc(F)cc2)CCC12CC2 (single isomer, unassigned) [Compound I-7, 5-(4-fluorobenzyl)-4-(1H-1,2,4-triazol-1-ylmethyl)-4-spiro[2.4]heptanol] | > 90 | 70 to 90 | > 90 | > 90 | > 90 | > 90 | 70 to 90 | > 90 | > 90 | > 90 | > 90 | > 90 | 70 to 90 | > 90 | 70 to 90 | > 90 | > 90 | 70 to 90 | > 90 | 89 to 90 | inhibition at 50 µg/mL [20]: 70 to 90%; inhibition at 50 µg/mL [21]: > 90%; inhibition at 50 µg/mL [22]: > 90%; inhibition at 50 µg/mL [23]: > 90%; inhibition at 50 µg/mL [24]: > 90%; inhibition at 50 µg/mL [25]: 70 to 90%; inhibition at 50 µg/mL [26]: 70 to 90%; inhibition at 50 µg/mL [27]: > 90%; inhibition at 50 µg/mL [28]: > 90%; inhibition at 50 µg/mL [29]: > 90% |
| OC1(Cn2cncn2)C(Cc2cccc(Cl)c2)CCC12CC2 (single isomer, unassigned) [Compound I-3, 5-(3-chlorobenzyl)-4-(1H-1,2,4-triazol-1-ylmethyl)-4-spiro[2.4]heptanol] | > 90 | 70 to 90 | > 90 | > 90 | > 90 | > 90 | 70 to 90 | > 90 | > 90 | > 90 | > 90 | > 90 | 70 to 90 | > 90 | 70 to 90 | > 90 | > 90 | 70 to 90 | > 90 | 84.5 to 85.5 | inhibition at 50 µg/mL [20]: 70 to 90%; inhibition at 50 µg/mL [21]: > 90%; inhibition at 50 µg/mL [22]: > 90%; inhibition at 50 µg/mL [23]: > 90%; inhibition at 50 µg/mL [24]: > 90%; inhibition at 50 µg/mL [25]: 70 to 90%; inhibition at 50 µg/mL [26]: 70 to 90%; inhibition at 50 µg/mL [27]: > 90%; inhibition at 50 µg/mL [28]: > 90%; inhibition at 50 µg/mL [29]: > 90% |
| OC1(Cn2cncn2)C(Cc2ccc(Cl)cc2)CCC12CC2 (single isomer, unassigned) [Compound I-1, 5-(4-chlorobenzyl)-4-(1H-1,2,4-triazol-1-ylmethyl)-4-spiro[2.4]heptanol] | > 90 | 70 to 90 | > 90 | > 90 | > 90 | > 90 | 70 to 90 | > 90 | > 90 | > 90 | > 90 | > 90 | 70 to 90 | > 90 | 70 to 90 | > 90 | > 90 | 70 to 90 | > 90 | 85.5 to 87 | Controlling value [30]: 100%; activity compared with Compound (A) [30]: higher activity; inhibition at 50 µg/mL [20]: 70 to 90%; inhibition at 50 µg/mL [21]: > 90%; inhibition at 50 µg/mL [22]: > 90%; inhibition at 50 µg/mL [23]: > 90%; inhibition at 50 µg/mL [24]: > 90%; inhibition at 50 µg/mL [25]: 70 to 90%; inhibition at 50 µg/mL [26]: 70 to 90%; inhibition at 50 µg/mL [27]: > 90%; inhibition at 50 µg/mL [28]: > 90%; inhibition at 50 µg/mL [29]: > 90% |
| OC1(Cn2cncn2)C(Cc2ccc(Cl)cc2)CCC12CC2 (single isomer, unassigned) [Compound I-2, 5-(4-chlorobenzyl)-4-(1H-1,2,4-triazol-1-ylmethyl)-4-spiro[2.4]heptanol] |  |  |  |  |  |  |  |  |  |  |  |  |  |  |  |  |  |  |  | 166 to 167 |  |
